Experimental data reported in ChEMBL document CHEMBL4196117, “PK/PD Disconnect Observed with a Reversible Endothelial Lipase Inhibitor” (ACS Med Chem Lett, 2018).

Columns and labels:
[1] = Cmax in CD1 mouse at 1 mg/kg, iv administered as bolus dose; type: ADME, organism-based; set-up: dose 1 mg/kg, route intravenous; conditions: in vivo
[2] = Tmax in CD1 mouse at 1 mg/kg, po administered as bolus dose; type: ADME, organism-based; conditions: in vivo
Endothelial lipase [3] = molecular target: T1, Endothelial lipase (Homo sapiens, UniProt Q9Y5X9); experiment: Inhibition of endothelial lipase in human HT1080 cells using PED-A1 containing DMPG vesicles as substrate pretreated for 20 mins followed by substrate addition and measured every 20 secs for 10 mins by fluorescence assay; type: cell-based
T1 sequence (Q9Y5X9 whole entry): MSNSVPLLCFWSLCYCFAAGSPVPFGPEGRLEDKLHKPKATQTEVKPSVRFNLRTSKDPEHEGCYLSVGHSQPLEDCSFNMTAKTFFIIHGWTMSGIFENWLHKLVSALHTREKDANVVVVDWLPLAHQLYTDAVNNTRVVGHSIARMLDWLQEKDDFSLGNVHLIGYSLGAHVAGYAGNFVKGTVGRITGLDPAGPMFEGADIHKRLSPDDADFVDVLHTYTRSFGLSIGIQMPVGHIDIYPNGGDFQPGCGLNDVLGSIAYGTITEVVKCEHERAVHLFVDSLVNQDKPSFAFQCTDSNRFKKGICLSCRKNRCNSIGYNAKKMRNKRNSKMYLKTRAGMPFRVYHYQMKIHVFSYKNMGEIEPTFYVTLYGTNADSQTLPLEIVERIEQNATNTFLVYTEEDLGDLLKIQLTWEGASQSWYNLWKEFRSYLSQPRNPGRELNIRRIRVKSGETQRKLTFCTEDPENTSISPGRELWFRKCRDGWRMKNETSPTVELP

Endothelial lipase [4] = molecular target: T1, Endothelial lipase; experiment: Inhibition of endothelial lipase in human HT1080 cells using HDL as substrate pretreated for 10 mins followed by substrate addition and measured after 30 mins by LC/MS/MS analysis; type: cell-based
Mus musculus [5] = experiment: fCmax in C57BL/6J mouse at 50 mg/kg, po administered once daily for 5 days measured 6 hrs post last dose; type: ADME, organism-based; conditions: in vivo
[6] = Ratio of fCmax in hamster to IC50 for recombinant mouse endothelial lipase expressed in HEK293F cells using HDL as substrate; type: ADME, cell-based
[7] = Oral bioavailability in CD1 mouse at 1 mg/kg administered as bolus dose; type: ADME, organism-based; conditions: in vivo
[8] = Protein binding in CD1 mouse plasma assessed as unbound fraction at 1 mg/kg, po administered as bolus dose; type: ADME, organism-based
[9] = Cmin in C57BL/6J mouse at 50 mg/kg, po administered once daily for 5 days measured 24 hrs post last dose; type: ADME, organism-based; conditions: in vivo, read-out: Cmin
[10] = Total AUC in CD1 mouse at 1 mg/kg, po administered as bolus dose; type: ADME, organism-based; set-up: dose 1 mg/kg, route oral, time AUCmax; conditions: in vivo
[11] = Half life in CD1 mouse at 1 mg/kg, iv administered as bolus dose; type: ADME, organism-based; conditions: in vivo
Mus musculus [12] = experiment: fCmin in C57BL/6J mouse at 50 mg/kg, po administered once daily for 5 days measured 24 hrs post last dose; type: ADME, organism-based; conditions: in vivo
Mus musculus [13] = experiment: Ratio of total AUC in CD1 mouse at 10 mg/kg, po administered as bolus dose to total AUC in CD1 mouse at 1 mg/kg, po administered as bolus dose; type: ADME, organism-based; conditions: in vivo
Mus musculus [14] = experiment: Free drug level in CD1 mouse at 1 mg/kg, po administered as bolus dose measured after 24 hrs; type: ADME, organism-based; conditions: in vivo
[15] = Protein binding in hamster plasma at 50 mg/kg, po qd for 7 days measured 6 hrs post dose on day 5; type: ADME, organism-based; conditions: cricetinae, read-out: PPB (converted)
[16] = Total AUC in CD1 mouse at 1 mg/kg, iv administered as bolus dose; type: ADME, organism-based; set-up: dose 1 mg/kg, time AUCmax, route intravenous; conditions: in vivo
[17] = Cmax in CD1 mouse at 1 mg/kg, po administered as bolus dose; type: ADME, organism-based; set-up: dose 1 mg/kg, route oral; conditions: in vivo
[18] = Protein binding in CD1 mouse plasma at 1 mg/kg, po administered as bolus dose; type: ADME, organism-based; conditions: read-out: PPB (converted)
[19] = Half life in CD1 mouse at 1 mg/kg, po administered as bolus dose; type: ADME, organism-based; conditions: in vivo
[20] = Ratio of fCmin in C57BL/6J mouse to IC50 for recombinant mouse endothelial lipase expressed in HEK293F cells using HDL as substrate; type: ADME, cell-based
Mus musculus [21] = experiment: Ratio of total AUC in CD1 mouse at 50 mg/kg, po administered as bolus dose to total AUC in CD1 mouse at 1 mg/kg, po administered as bolus dose; type: ADME, organism-based; conditions: in vivo
Hamster = experiment: fCmax in hamster at 50 mg/kg, po qd for 7 days measured 6 hrs post dose on day 5; type: ADME, organism-based; conditions: cricetinae, in vivo
[22] = Drug level in CD1 mouse at 1 mg/kg, po administered as bolus dose measured after 24 hrs; type: ADME, organism-based; conditions: in vivo, read-out: Drug uptake
[23] = Ratio of fCmax in C57BL/6J mouse to IC50 for recombinant mouse endothelial lipase expressed in HEK293F cells using HDL as substrate; type: ADME, cell-based
[24] = Tmax in CD1 mouse at 1 mg/kg, iv administered as bolus dose; type: ADME, organism-based; conditions: in vivo
[25] = Cmax in C57BL/6J mouse at 50 mg/kg, po administered once daily for 5 days measured 6 hrs post last dose; type: ADME, organism-based; set-up: dose 50 mg/kg, route oral; conditions: in vivo

Cmax [1]: 39 µM | Tmax [2]: 0.5 h | IC50 (Endothelial lipase [3]): 148 nM | IC50 (Endothelial lipase [4]): 218 nM | fCmax (Mus musculus [5]): 5.5 µM | Ratio [6]: 51 | bioavailability [7]: 96% | fraction unbound [8]: 0.023 | concentration at 24 h [9]: 57 µM | AUC [10]: 292 µM·h | half-life [11]: 13 h | fCmin (Mus musculus [12]): 1.3 µM | Ratio AUC (Mus musculus [13]): 7.5 | Drug uptake(free) (Mus musculus [14]): 99 nM | fraction unbound at 6 h [15]: 0.016 | AUC [16]: 304 µM·h | Cmax [17]: 15 µM | fraction unbound [18]: 0.023 | half-life [19]: 13 h | Ratio [20]: 13 | Ratio AUC (Mus musculus [21]): 18 | fCmax (Hamster): 5.1 µM | concentration at 24 h [22]: 4.31 µM | Ratio [23]: 55 | Tmax [24]: 3 min | Cmax [25]: 238 µM
SMILES: CCN1CC(C(=O)NC(C)CCc2ccc(Cl)c(Cl)c2)=C(O)C1=O (stereo in doubt; 7c)
